Test system: S. epidermidis NCIB 11536
Experiment: Antibiotic disc sensitivities of the producer strain
Type: cell-based
Conditions: for Sensitive to: Amount of antibiotic/disc: strain sensitive at this disc content

Molecule	Novobiocin sensitivity (5 μg disc)	Sensitive to: Amount of antibiotic/disc
CO[C@@H]1[C@@H](OC(N)=O)[C@@H](O)[C@H](Oc2ccc3c(O)c(NC(=O)c4ccc(O)c(CC=C(C)C)c4)c(=O)oc3c2C)OC1(C)C [novobiocin]	sensitive	
CC1(C)S[C@@H]2[C@H](NC(=O)Cc3ccccc3)C(=O)N2[C@H]1C(=O)O [penicillin G]		1 unit
gentamycin		10 µg
